Measured values as given in patent publication US20260151516A1, “NEW PET TRACER FOR IMAGING OF THE FUNCTIONAL HEPATIC RESERVE” (Medizinische Universität Innsbruck, priority 2022, published 2026).
“And” between values parts separate entries of the source, which are not always exact repeats. Identical values can stand only once.

How the values were obtained:
[1] = Ligand stability in human blood serum (radio-HPLC); format: in vitro ADME; settings: for Serum stability (% of intact ligand): 37° C.
Method: (§1) Ligand stability in human blood serum (n=2) and PBS (n=1) was determined for different time points (2 min, 30 min, 60 min, 120 min). Therefore, approx. 5 MBq of radioligand was added to 1 mL of fresh human serum or PBS and incubated at 37° C. At each given time point 100 μL of the mixture were transferred to a 1.5 mL Eppendorf tube containing 100 μL of acetonitrile. The vial was vortexed and centrifuged for 2 min at 14,000 rpm before 100 μL of the supernatant were diluted with 200 μL of water and injected into analytical radio-HPLC. The PBS solution was directly injected into the radio-HPLC. Ligand stability was determined by integrating the areas of the signals in the radio chromatogram in relation to the signal of the intact ligand.

[2] = Biodistribution studies incl. blocking experiments; format: in vivo; settings: healthy BALB/c mice
Method: For biodistribution studies 6 week old female BALB/c mice (n=3) were injected with 0.1 nmol (100 μL, approx. 1 MBq) of labelled compound via the lateral tail vein and sacrificed after 10, 30, or 60 min by cervical dislocation. The mice were dissected, blood and organs (spleen, pancreas, stomach, intestine, liver, kidney, heart, lung, muscle, and bone) were weighed, and their activity measured in a γ-counter. For blocking experiments, mice were co-injected with 100 μL of a 277 mM Galactose/PBS solution. In case of [^68Ga]Ga-TRAP-GalNAc a 277 mM N-Acetylgalactose solution was used.

[3] = Ligand stability in PBS (radio-HPLC); format: physicochemical; settings: 37° C., over the time course of 2 h
Method: as §1

human serum = assay: Protein binding in fresh human serum (Sephadex MicroSpin G-50 columns); format: in vitro ADME; settings: 37° C.
Method: Protein binding was determined for different time points (2 min, 30 min, 60 min, 120 min) in triplicates using Sephadex MicroSpin G-50 columns (GE-Healthcare, Chicago, Illinois, USA). The columns were spun initially at 20,000 rcf for 1 min to remove the storage buffer. Then approx. 5 MBq of radioligand was added to 1 mL of fresh human serum and incubated at 37° C. At each given timepoint 25 μL of the mixture was loaded on to the column, which was then spun at 20,000 rcf for 1 min. The activity content on the column (free radioligand) and in the filtrate (protein bound fraction) was quantified in a γ-counter.

[4] = Partition coefficient (log D), n-Octanol/PBS; format: physicochemical; settings: read-out: logD
Method: The vials were vortexed for 5 min at 1,500 rpm and then centrifuged for 5 min at 20,000 rcf (Eppendorf Centrifuge 5424).

Recombinant human ASGR1 = target: T1, Recombinant human ASGR1 (Homo sapiens, UniProt P07306); assay: In vitro binding study, isolated receptor-based assay against ^125I-Asialoorosomucoid; settings: recombinant human ASGR1, ^125I-Asialoorosomucoid 50 nM, n = 3; method used [^natGa]Ga-NODAGA-TriGalactan
T1 construct: His tag (inferred from immobilisation on Ni-coated plates)
T1 sequence (P07306 1-291): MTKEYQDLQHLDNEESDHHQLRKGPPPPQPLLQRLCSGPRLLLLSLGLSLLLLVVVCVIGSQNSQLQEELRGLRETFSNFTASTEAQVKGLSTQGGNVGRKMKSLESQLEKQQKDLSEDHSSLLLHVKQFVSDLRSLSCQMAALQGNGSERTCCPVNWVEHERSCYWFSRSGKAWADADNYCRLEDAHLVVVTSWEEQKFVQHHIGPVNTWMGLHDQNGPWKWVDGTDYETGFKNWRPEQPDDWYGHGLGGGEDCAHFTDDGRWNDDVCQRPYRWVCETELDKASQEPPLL
Method: Recombinant human ASGR1 was seeded out into Ni-coated 96 well plates (Pierce, Thermo Fisher) in PBS at a concentration of 2 μg/mL for at least 2 h at room temperature under mild agitation (200 1/min). Unbound receptor was removed by washing the wells twice with binding buffer (25 mM Tris×HCl, 150 mM NaCl, 0.05% TWEEN 20, pH=7.4). Next 140 μL of binding buffer as well as 20 μL of a 19 mM CaCl2-solution were added to the wells followed by addition of either 20 μL of PBS (control) or 20 μL of [^natGa]Ga-NODAGA-TriGalactan in PBS. Final ligand concentrations were ranging from 10^−5-10^−11 M. Lastly 20 μL of ^125I-Asialoorosomucoid (50 nM, 2.4 kBq per well) were added and the plate was incubated for 1 hour at room temperature under mild agitation (200 rpm). Supernatants were removed and the wells washed twice with 200 μL of PBS before receptor bound activity was released by addition of 200 μL of hot (60° C.) 1 M NaOH. Wells were incubated with NaOH for 10 min. Lysates were removed and the wells washed again twice with 200 μL of hot NaOH. The activity content in the lysates was quantified in a γ-counter and the values plotted in excel. Fitting of the sigmoidal binding curve and the calculation of the IC50 value was done with Excel's solver plugin.

[5] = 30 min p.i., blocking with 277 mM galactose

O=C(O)CN1CCN(CC(=O)O)CCN([C@H](CCC(=O)NCCCC(=O)NC(COCc2cn(CCOCCOCCO[C@@H]3O[C@H](CO)[C@H](O)[C@H](O)[C@H]3O)nn2)(COCc2cn(CCOCCOCCO[C@@H]3O[C@H](CO)[C@H](O)[C@H](O)[C@H]3O)nn2)COCc2cn(CCOCCOCCO[C@@H]3O[C@H](CO)[C@H](O)[C@H](O)[C@H]3O)nn2)C(=O)O)CC1 [[^68Ga]Ga-NODAGA-TriGalactan, metal not drawn]
Serum stability (% of intact ligand) ([1]; 2 min): 99.8%
Serum stability (% of intact ligand) ([1]; 30 min): 97.6%
Serum stability (% of intact ligand) ([1]; 60 min): 98.5%
Serum stability (% of intact ligand) ([1]; 120 min): 92.9%
Stability in human blood serum (% intact tracer) ([1]; over the time course of 2 h): > 93%
Biodistribution Blood ([2]; 10 min p.i.): 3.3 ± 0.2 % ID/g
Biodistribution Femur ([2]; 10 min p.i.): 0.87 ± 0.52 % ID/g
Biodistribution Intestine ([2]; 10 min p.i.): 1.13 ± 0.07 % ID/g
Biodistribution Kidneys ([2]; 10 min p.i.): 8.2±0.5 % ID/g and 8.15 ± 0.54 % ID/g
Biodistribution Liver ([2]; 10 min p.i.): 33.4±0.9 % ID/g and 33.4 ± 0.88 % ID/g
Biodistribution Lung ([2]; 10 min p.i.): 2.14 ± 0.13 % ID/g
Biodistribution Muscle ([2]; 10 min p.i.): 0.77 ± 0.02 % ID/g
Biodistribution Pancreas ([2]; 10 min p.i.): 0.87 ± 0.12 % ID/g
Biodistribution Spleen ([2]; 10 min p.i.): 0.78 ± 0.05 % ID/g
Biodistribution Blood ([2]; 30 min p.i.): 0.89 ± 0.09 % ID/g
Biodistribution Femur ([2]; 30 min p.i.): 0.22 ± 0.02 % ID/g
Biodistribution Heart ([2]; 30 min p.i.): 0.40 ± 0.03 % ID/g
Biodistribution Intestine ([2]; 30 min p.i.): 1.95 ± 0.17 % ID/g
Biodistribution Kidneys ([2]; 30 min p.i.): 2.83 ± 0.18 % ID/g
Biodistribution Liver ([2]; 30 min p.i.): 32.2±3.7 % ID/g
Biodistribution Lung ([2]; 30 min p.i.): 0.74 ± 0.03 % ID/g
Biodistribution Muscle ([2]; 30 min p.i.): 0.23 ± 0.03 % ID/g
Biodistribution Pancreas ([2]; 30 min p.i.): 0.31 ± 0.05 % ID/g
Biodistribution Spleen ([2]; 30 min p.i.): 0.27 ± 0.02 % ID/g
Biodistribution Stomach ([2]; 30 min p.i.): 1.05 ± 0.08 % ID/g
Biodistribution Blood [2, 5]: 1.19 ± 0.33 % ID/g
Biodistribution Femur [2, 5]: 0.37 ± 0.16 % ID/g
Biodistribution Heart [2, 5]: 0.44 ± 0.03 % ID/g
Biodistribution Intestine [2, 5]: 0.77 ± 0.19 % ID/g
Biodistribution Kidneys [2, 5]: 4.19 ± 0.29 % ID/g
Biodistribution Liver [2, 5]: 13.9±1.0 % ID/g and 14.6 ± 0.15 % ID/g
Biodistribution Lung [2, 5]: 0.97 ± 0.04 % ID/g
Biodistribution Muscle [2, 5]: 0.43 ± 0.20 % ID/g
Biodistribution Pancreas [2, 5]: 0.45 ± 0.01 % ID/g
Biodistribution Spleen [2, 5]: 0.32 ± 0.03 % ID/g
Biodistribution Stomach [2, 5]: 0.68 ± 0.11 % ID/g
Biodistribution Blood ([2]; 60 min p.i.): 0.3±0.04 % ID/g and 0.34 ± 0.04 % ID/g
Biodistribution Femur ([2]; 60 min p.i.): 0.26 ± 0.19 % ID/g
Biodistribution Heart ([2]; 60 min p.i.): 0.17 ± 0.00 % ID/g
Biodistribution Intestine ([2]; 60 min p.i.): 3.0±0.4 % ID/g and 2.99 ± 0.43 % ID/g
Biodistribution Kidneys ([2]; 60 min p.i.): 1.51 ± 0.10 % ID/g
Biodistribution Liver ([2]; 60 min p.i.): 27.7±3.1 % ID/g and 27.7 ± 3.12 % ID/g
Biodistribution Lung ([2]; 60 min p.i.): 0.38 ± 0.10 % ID/g
Biodistribution Muscle ([2]; 60 min p.i.): 0.17 ± 0.02 % ID/g
Biodistribution Pancreas ([2]; 60 min p.i.): 0.19 ± 0.09 % ID/g
Biodistribution Spleen ([2]; 60 min p.i.): 0.16 ± 0.02 % ID/g
Biodistribution Stomach ([2]; 60 min p.i.): 0.92 ± 0.04 % ID/g
Stability in PBS (% intact tracer) [3]: > 99%
Protein binding (%) (human serum; 2 min): 7.6±3.9%
Protein binding (%) (human serum; 30 min): 5.5%
Protein binding (%) (human serum; 60 min): 9.2%
Protein binding (%) (human serum; 120 min): 13.6±3.2%
logD [4]: -4.33 ± 0.09
IC50 (Recombinant human ASGR1): 1.7 nM
